Source: ChEMBL document CHEMBL1201862, “PubChem BioAssay data set” (2004)
The source made the active and inactive calls.

Assays:
[1] = (§1) Counterscreen for antagonists of the orexin 1 receptor (OX1R; HCRTR1): Fluorescence-based cell-based high throughput dose response assay to identify antagonists of the parental CHO cell line. [Related pubchem assays (depositor defined):AID434989, AID435008, AID463079, AID485270, AID492963, AID492964, AID492965, AID493232, AID504699, AID504701]; assay type: functional
Orexin receptor type 2 [2] = biological target: T1, Orexin receptor type 2 (Homo sapiens, UniProt O43614); assay: Counterscreen assay for antagonists of the orexin 1 receptor (OX1R; HCRTR1): Homogeneous Time Resolved Fluorescence (HTRF)-based cell-based dose response assay for antagonists of the orexin 2 receptor (OX2R; HCRTR2), run by assay provider.; assay type: functional
T1 sequence (O43614 whole entry): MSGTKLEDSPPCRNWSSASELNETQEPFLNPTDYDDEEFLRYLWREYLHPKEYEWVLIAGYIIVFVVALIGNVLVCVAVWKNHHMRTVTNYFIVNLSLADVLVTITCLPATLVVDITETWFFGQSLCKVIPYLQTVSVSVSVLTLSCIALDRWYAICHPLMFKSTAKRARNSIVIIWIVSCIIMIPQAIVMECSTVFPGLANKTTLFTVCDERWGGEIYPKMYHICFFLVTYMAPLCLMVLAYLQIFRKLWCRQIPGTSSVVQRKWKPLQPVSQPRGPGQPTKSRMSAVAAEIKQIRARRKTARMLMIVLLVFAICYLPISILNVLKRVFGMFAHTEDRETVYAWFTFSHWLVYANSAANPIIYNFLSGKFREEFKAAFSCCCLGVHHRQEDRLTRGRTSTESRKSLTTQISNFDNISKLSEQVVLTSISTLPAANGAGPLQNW

Orexin receptor type 2 [3] = biological target: T1, Orexin receptor type 2; assay: Counterscreen assay for antagonists of the orexin 1 receptor (OX1R; HCRTR1): Fluorescence-based cell-based dose response assay for antagonists of the orexin 2 receptor (OX2R; HCRTR2), run by assay provider.; assay type: functional
[4] = biological target: T2, Orexin/Hypocretin receptor type 1 (Homo sapiens, UniProt O43613); assay: Homogeneous Time Resolved Fluorescence (HTRF)-based cell-based high throughput dose response assay for antagonists of the orexin 1 receptor (OX1R; HCRTR1). [Related pubchem assays (depositor defined):AID434989, AID435008, AID463079, AID485270, AID492963, AID492964, AID492965, AID493232, AID504717, AID504718]; assay type: functional
T2 sequence (O43613 whole entry): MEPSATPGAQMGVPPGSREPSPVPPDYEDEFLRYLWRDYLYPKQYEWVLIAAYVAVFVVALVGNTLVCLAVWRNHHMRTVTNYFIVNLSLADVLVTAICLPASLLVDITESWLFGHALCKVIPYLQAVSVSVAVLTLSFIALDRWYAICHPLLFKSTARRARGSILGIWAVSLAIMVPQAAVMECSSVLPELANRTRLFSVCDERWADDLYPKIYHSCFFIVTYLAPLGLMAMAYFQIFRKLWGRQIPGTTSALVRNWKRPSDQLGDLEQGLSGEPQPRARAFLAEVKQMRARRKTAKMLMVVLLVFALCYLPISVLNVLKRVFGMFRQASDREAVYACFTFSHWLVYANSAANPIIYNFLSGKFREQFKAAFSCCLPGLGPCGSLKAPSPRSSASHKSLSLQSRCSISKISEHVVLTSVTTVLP

CHO-K1 = assay: as §1, with “Homogeneous time resolved fluorescence (HTRF)-based” for “Fluorescence-based”, “cell-based” for “cell-based high throughput”, “CHO-K1” for “CHO”; assay type: functional; details: Cricetulus griseus;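 also: potency for inhibition of ATP-stimulated IP1 production as antagonists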
[5] = biological target: T2, Orexin/Hypocretin receptor type 1; assay: Fluorescence-based cell-based high throughput dose response assay for antagonists of the orexin 1 receptor (OX1R; HCRTR1). [Related pubchem assays (depositor defined):AID434989, AID435008, AID463079, AID485270, AID492963, AID492964, AID492965, AID493232, AID504717, AID504718]; assay type: functional
[6] = biological target: T3, Carboxy-terminal domain RNA polymerase II polypeptide A small phosphatase 1 (Homo sapiens, UniProt Q9GZU7); assay: inhibitors of CTDSP1, concentration-response testing, biochemical assay, absorbance-based, actives from ultra-high-throughput screening (AID 540297); assay type: functional
T3 sequence (Q9GZU7 whole entry): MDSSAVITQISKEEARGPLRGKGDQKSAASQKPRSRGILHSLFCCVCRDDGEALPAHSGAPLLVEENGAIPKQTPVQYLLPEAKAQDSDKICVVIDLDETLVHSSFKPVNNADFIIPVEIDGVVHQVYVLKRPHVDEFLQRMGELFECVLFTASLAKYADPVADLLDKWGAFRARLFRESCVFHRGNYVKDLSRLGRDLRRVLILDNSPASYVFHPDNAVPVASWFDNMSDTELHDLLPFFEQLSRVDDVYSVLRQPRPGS

[7] = nonselective inhibitors of cellular cAMP signaling, dose response, counter-screen for MC4R biased antagonist project, cell-based, TR-FRET cAMP detection (AID 602305); assay type: functional;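 also: U2OS cells stimulated with forskolin near its EC80 as the cAMP inducer; potency is for inhibition of forskolin-stimulated cAMP signaling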
Melanocortin receptor 4 = Melanocortin receptor 4 (Homo sapiens, UniProt P32245); assay: MC4R antagonist potency on cAMP, dose response, cell-based, TR-FRET, biased antagonists (AID 602298); assay type: functional;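 also: antagonist potency against agonist-stimulated cAMP production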
SN12K1 = assay: cells; assay type: functional; details: Homo sapiens
P388 = assay: cells; assay type: functional; details: Mus musculus
P388/ADR = assay: cells; assay type: functional; details: Mus musculus
Insulin-degrading enzyme [8] = biological target: T4, Insulin-degrading enzyme (Homo sapiens, UniProt P14735); assay: activators of recombinant IDE enzyme, dose response, counter-screen for IDE activator project, biochemical, fluorescence polarization (AID 588681)
T4 sequence (P14735 whole entry): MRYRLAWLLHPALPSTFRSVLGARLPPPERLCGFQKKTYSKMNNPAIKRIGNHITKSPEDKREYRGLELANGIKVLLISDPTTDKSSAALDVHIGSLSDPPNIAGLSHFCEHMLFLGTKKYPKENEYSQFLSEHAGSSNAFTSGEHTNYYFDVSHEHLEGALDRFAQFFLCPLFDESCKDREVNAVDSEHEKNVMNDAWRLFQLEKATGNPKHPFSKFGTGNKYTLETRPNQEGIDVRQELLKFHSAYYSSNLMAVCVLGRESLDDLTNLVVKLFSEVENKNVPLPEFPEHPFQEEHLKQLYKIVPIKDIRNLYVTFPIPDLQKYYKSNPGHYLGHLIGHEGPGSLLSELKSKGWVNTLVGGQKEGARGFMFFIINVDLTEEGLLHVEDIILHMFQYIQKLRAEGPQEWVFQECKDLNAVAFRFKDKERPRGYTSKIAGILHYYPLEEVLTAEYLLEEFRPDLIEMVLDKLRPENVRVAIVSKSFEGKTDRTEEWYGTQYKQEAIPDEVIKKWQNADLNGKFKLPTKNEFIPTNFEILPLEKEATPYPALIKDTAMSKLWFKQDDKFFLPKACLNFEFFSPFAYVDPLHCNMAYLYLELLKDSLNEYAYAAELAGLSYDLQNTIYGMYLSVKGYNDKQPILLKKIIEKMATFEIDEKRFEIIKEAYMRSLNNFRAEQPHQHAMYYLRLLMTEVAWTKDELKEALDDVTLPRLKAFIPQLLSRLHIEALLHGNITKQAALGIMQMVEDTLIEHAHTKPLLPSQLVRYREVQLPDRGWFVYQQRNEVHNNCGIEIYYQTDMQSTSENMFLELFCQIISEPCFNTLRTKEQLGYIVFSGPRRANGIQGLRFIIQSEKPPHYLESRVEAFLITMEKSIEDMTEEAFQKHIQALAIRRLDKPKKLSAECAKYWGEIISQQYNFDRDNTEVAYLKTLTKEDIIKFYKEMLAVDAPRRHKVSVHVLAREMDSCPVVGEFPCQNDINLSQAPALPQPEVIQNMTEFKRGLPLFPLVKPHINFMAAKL

Cytochrome P450 1A2 = biological target: T5, Cytochrome P450 1A2 (Homo sapiens, UniProt P05177);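 also: PubChem cytochrome P450 panel assay, CYP1A2 panel member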
T5 sequence (P05177 whole entry): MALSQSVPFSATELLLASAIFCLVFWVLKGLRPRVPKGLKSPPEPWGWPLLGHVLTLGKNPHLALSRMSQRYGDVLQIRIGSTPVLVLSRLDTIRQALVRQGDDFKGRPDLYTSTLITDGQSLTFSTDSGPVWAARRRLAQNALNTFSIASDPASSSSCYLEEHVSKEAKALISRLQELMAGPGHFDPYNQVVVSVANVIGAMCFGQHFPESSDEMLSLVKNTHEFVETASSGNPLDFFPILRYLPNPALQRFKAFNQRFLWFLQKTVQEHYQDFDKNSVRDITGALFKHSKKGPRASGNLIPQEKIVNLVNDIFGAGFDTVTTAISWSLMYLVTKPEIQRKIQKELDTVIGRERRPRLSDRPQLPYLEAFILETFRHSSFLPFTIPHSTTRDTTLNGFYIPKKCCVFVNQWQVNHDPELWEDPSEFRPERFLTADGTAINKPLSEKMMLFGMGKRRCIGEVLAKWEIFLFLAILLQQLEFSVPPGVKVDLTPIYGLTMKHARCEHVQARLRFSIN

HEK293 [9] = assay: optical interference in Abeta FP readout, dose response, artefact control for IDE activator project, biochemical, fluorescence polarization (AID 588442); assay type: functional, cell-based; details: Homo sapiens
HEK293 [10] = assay: HEK cell cytotoxicity by LDH release, dose response, cytotoxicity control for IDE activator project, fluorescence, HEK cells (AID 588440); assay type: functional, cell-based; details: Homo sapiens;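 also: cytotoxicity by LDH release measuring loss of membrane integrity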
Insulin-degrading enzyme [11] = biological target: T4, Insulin-degrading enzyme; assay: activators of endogenous IDE in HEK cells, dose response, cell-based, fluorescence polarization (AID 588439); assay type: functional

Chain of Melanocortin receptor 4 (P32245 whole entry): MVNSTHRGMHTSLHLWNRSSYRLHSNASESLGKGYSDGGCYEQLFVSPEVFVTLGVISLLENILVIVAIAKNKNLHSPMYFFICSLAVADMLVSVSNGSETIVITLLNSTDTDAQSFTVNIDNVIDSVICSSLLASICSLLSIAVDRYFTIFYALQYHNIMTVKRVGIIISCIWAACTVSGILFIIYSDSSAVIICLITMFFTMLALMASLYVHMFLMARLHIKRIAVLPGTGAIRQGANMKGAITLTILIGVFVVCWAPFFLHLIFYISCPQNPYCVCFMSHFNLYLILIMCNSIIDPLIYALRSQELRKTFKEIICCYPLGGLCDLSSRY

Structure (SMILES)	IC50 [1]	IC50 (Orexin receptor type 2 [2])	IC50 (Orexin receptor type 2 [3])	IC50 [4]	IC50 (CHO-K1)	IC50 [5]	further results
N#Cc1cccn1-c1nccc(-c2cccs2)n1	> 49.7 µM (inactive)	> 50 µM (inactive)	> 88.8 µM (inactive)	3.66 µM (active)	> 66.2 µM (inactive)	20.3 µM (inactive)	–
O=C(OCc1cc(=O)n2c(n1)sc1ccccc12)c1cccc(O)c1	37 µM (inactive)	> 50 µM (inactive)	> 88.8 µM (inactive)	5.46 µM (active)	> 66.2 µM (inactive)	5.73 µM (active)	IC50 [6]: 3.87 µM (active)
CC(C)Cc1ccc(C(C)CC2=CCC(CN(C)C)C2=O)cc1 (stereo not drawn)	–	–	–	–	–	–	IC50 [7]: > 64.7 µM (inactive); IC50 (Melanocortin receptor 4): 8.78 µM (active); GI50 (SN12K1): 3.33 µM (inactive); GI50 (P388): 2.02 µM (inactive); GI50 (P388/ADR): 1.09 µM (active)
Cc1ccccc1OC/C(O)=C(\C#N)c1nc2ccccc2[nH]1	–	–	–	–	–	–	EC50 (Insulin-degrading enzyme [8]): > 54.7 µM (inactive); AC50 (Cytochrome P450 1A2): 0.282 µM (inconclusive); EC50 (HEK293 [9]): > 54.7 µM (inactive); IC50 (HEK293 [10]): > 89.2 µM (inactive); EC50 (Insulin-degrading enzyme [11]): > 54.7 µM (inactive)
